The target in this assay is human APJ receptor (Homo sapiens (Human), UniProt P35414). Put plainly: [35S]GTPγS binding assay on membranes from CHO cells stably expressing human APJ receptor. The class given is biochemical. The settings on record: read-out: Activity hAPJ SPA EC50 IP. On the procedure: [^35S]GTPγS Binding The human APJ receptor was cloned by polymerase chain reaction and the gene encoding the receptor was subcloned in pFLAG-CMV™-3 expression vector (Sigma, Saint Louis, Mo. USA) in-house at Amgen. A GTPγS binding assay was performed on membranes prepared from CHO cells stably expressing human APJ receptor. The optimum experimental conditions for the concentrations of GDP, MgCl2, and NaCl in the assay buffer were initially determined. […] Incubation was at RT for 90 min and the microplate was read using a ViewLux™ ultra HTS Microplate Imager (PerkinElmer, Inc.). All the results presented are means of several independent experiments and analyzed by non-linear regression methods using the commercially available program Prism (GraphPad, San Diego, Calif.) providing the EC50 values detailed in Table 13.
Sequence of human APJ receptor (P35414 whole entry): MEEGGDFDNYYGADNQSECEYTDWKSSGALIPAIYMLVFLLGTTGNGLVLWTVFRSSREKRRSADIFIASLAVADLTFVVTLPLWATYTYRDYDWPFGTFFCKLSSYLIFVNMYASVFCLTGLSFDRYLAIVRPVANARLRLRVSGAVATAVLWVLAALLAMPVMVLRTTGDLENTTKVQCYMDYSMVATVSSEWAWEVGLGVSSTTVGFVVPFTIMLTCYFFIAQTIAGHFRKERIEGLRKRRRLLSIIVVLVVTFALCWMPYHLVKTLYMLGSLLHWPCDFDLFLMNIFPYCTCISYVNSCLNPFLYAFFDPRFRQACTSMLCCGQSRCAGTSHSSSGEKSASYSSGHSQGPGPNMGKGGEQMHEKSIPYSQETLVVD
In general terms: Binding of GTPγS marks nucleotide exchange on a G protein.
As for `COC[C@@H]1COc2ccccc2-c2nnc(NS(=O)(=O)[C@@H](C)[C@H](C)c3ncc(OC)cn3)n21` (single isomer, unassigned) [Example 1.0, (2S,3R)-N-((5R)-5-(methoxymethyl)-5,6-dihydro[1,2,4]triazolo[4,3-d][1,4]benzoxazepin-3-yl)-3-(5-methoxy-2-pyrimidinyl)-2-butanesulfonamide or (2S,3R)-N-((5S)-5-(methoxymethyl)-5,6-dihydro[1,2,4]triazolo[4,3-d][1,4]benzoxazepin-3-yl)-3-(5-methoxy-2-pyrimidinyl)-2-butanesulfonamide], the EC50 (as a rule, the concentration that produces a half-maximal response) amounted to 120 nM.
Then `COC[C@@H]1COc2ccccc2-c2nnc(NS(=O)(=O)[C@@H](C)[C@H](C)c3ncc(OC)cn3)n21` (single isomer, unassigned) [Example 2.0, (2S,3R)-N-((5R)-5-(methoxymethyl)-5,6-dihydro[1,2,4]triazolo[4,3-d][1,4]benzoxazepin-3-yl)-3-(5-methoxy-2-pyrimidinyl)-2-butanesulfonamide or (2S,3R)-N-((5S)-5-(methoxymethyl)-5,6-dihydro[1,2,4]triazolo[4,3-d][1,4]benzoxazepin-3-yl)-3-(5-methoxy-2-pyrimidinyl)-2-butanesulfonamide], with 770 nM; and `COC[C@@H]1COc2ccccc2-c2nnc(NS(=O)(=O)[C@@H](C)[C@@H](OC(C)C)c3ncc(C)cn3)n21` (single isomer, unassigned) [Example 4.0, (1S,2S)-N-((5R)-5-(methoxymethyl)-5,6-dihydro[1,2,4]triazolo[4,3-d][1,4]benzoxazepin-3-yl)-1-(5-methyl-2-pyrimidinyl)-1-(2-propanyloxy)-2-propanesulfonamide or (1S,2S)-N-((5S)-5-(methoxymethyl)-5,6-dihydro[1,2,4]triazolo[4,3-d][1,4]benzoxazepin-3-yl)-1-(5-methyl-2-pyrimidinyl)-1-(2-propanyloxy)-2-propanesulfonamide], with 17 nM.
As to `COC[C@@H]1COc2ccccc2-c2nnc(NS(=O)(=O)[C@@H](C)[C@@H](OC(C)C)c3ncc(C)cn3)n21` (single isomer, unassigned) [Example 5.0, (1S,2S)-N-((5R)-5-(methoxymethyl)-5,6-dihydro[1,2,4]triazolo[4,3-d][1,4]benzoxazepin-3-yl)-1-(5-methyl-2-pyrimidinyl)-1-(2-propanyloxy)-2-propanesulfonamide or (1S,2S)-N-((5S)-5-(methoxymethyl)-5,6-dihydro[1,2,4]triazolo[4,3-d][1,4]benzoxazepin-3-yl)-1-(5-methyl-2-pyrimidinyl)-1-(2-propanyloxy)-2-propanesulfonamide], the EC50 came to 130 nM.
Then `COC[C@@H]1COc2ccc(OC)nc2-c2nnc(NS(=O)(=O)[C@@H](C)[C@H](C)c3ncc(OC)cn3)n21` (single isomer, unassigned) [Example 6.0, (2S,3R)-N-((5R)-10-methoxy-5-(methoxymethyl)-5,6-dihydropyrido[2,3-f][1,2,4]triazolo[4,3-d][1,4]oxazepin-3-yl)-3-(5-methoxy-2-pyrimidinyl)-2-butanesulfonamide or (2S,3R)-N-((5S)-10-methoxy-5-(methoxymethyl)-5,6-dihydropyrido[2,3-f][1,2,4]triazolo[4,3-d][1,4]oxazepin-3-yl)-3-(5-methoxy-2-pyrimidinyl)-2-butanesulfonamide], with 2300 nM; and `COC[C@@H]1COc2ccc(OC)nc2-c2nnc(NS(=O)(=O)[C@@H](C)[C@H](C)c3ncc(OC)cn3)n21` (single isomer, unassigned) [Example 7.0, (2S,3R)-N-((5R)-10-methoxy-5-(methoxymethyl)-5,6-dihydropyrido[2,3-f][1,2,4]triazolo[4,3-d][1,4]oxazepin-3-yl)-3-(5-methoxy-2-pyrimidinyl)-2-butanesulfonamide or (2S,3R)-N-((5S)-10-methoxy-5-(methoxymethyl)-5,6-dihydropyrido[2,3-f][1,2,4]traizolo[4,3-d][1,4]oxazepin-3-yl)-3-(5-methoxy-2-pyrimidinyl)-2-butanesulfonamide], with 250 nM.
Then `COC[C@@H]1COc2c(OC)cccc2-c2nnc(NS(=O)(=O)[C@@H](C)[C@H](C)c3ncc(OC)cn3)n21` (single isomer, unassigned) [Example 8.0, (2S,3R)-N-((5R)-8-methoxy-5-(methoxymethyl)-5,6-dihydro[1,2,4]triazolo[4,3-d][1,4]benzoxazepin-3-yl)-3-(5-methoxy-2-pyrimidinyl)-2-butanesulfonamide or (2S,3R)-N-((5S)-8-methoxy-5-(methoxymethyl)-5,6-dihydro[1,2,4]triazolo[4,3-d][1,4]benzoxazepin-3-yl)-3-(5-methoxy-2-pyrimidinyl)-2-butanesulfonamide], with 270 nM; and `COC[C@@H]1COc2c(OC)cccc2-c2nnc(NS(=O)(=O)[C@@H](C)[C@H](C)c3ncc(OC)cn3)n21` (single isomer, unassigned) [Example 9.0, (2S,3R)-N-((5R)-8-methoxy-5-(methoxymethyl)-5,6-dihydro[1,2,4]triazolo[4,3-d][1,4]benzoxazepin-3-yl)-3-(5-methoxy-2-pyrimidinyl)-2-butanesulfonamide or (2S,3R)-N-((5S)-8-methoxy-5-(methoxymethyl)-5,6-dihydro[1,2,4]triazolo[4,3-d][1,4]benzoxazepin-3-yl)-3-(5-methoxy-2-pyrimidinyl)-2-butanesulfonamide], with 1600 nM.
Then `COC[C@@H]1COc2ccc(OC)nc2-c2nnc(NS(=O)(=O)[C@@H](C)[C@H](C)c3ncc(C)cn3)n21` (single isomer, unassigned) [Example 12.0, (2S,3R)-N-((5R)-10-methoxy-5-(methoxymethyl)-5,6-dihydropyrido[2,3-f][1,2,4]triazolo[4,3-d][1,4]oxazepin-3-yl)-3-(5-methyl-2-pyrimidinyl)-2-butanesulfonamide or (2S,3R)-N-((5S)-10-methoxy-5-(methoxymethyl)-5,6-dihydropyrido[2,3-f][1,2,4]triazolo[4,3-d][1,4]oxazepin-3-yl)-3-(5-methyl-2-pyrimidinyl)-2-butanesulfonamide], with 1200 nM; and `COC[C@@H]1COc2ccc(OC)nc2-c2nnc(NS(=O)(=O)[C@@H](C)[C@H](C)c3ncc(C)cn3)n21` (single isomer, unassigned) [Example 13.0, (2S,3R)-N-((5R)-10-methoxy-5-(methoxymethyl)-5,6-dihydropyrido[2,3-f][1,2,4]triazolo[4,3-d][1,4]oxazepin-3-yl)-3-(5-methyl-2-pyrimidinyl)-2-butanesulfonamide or (2S,3R)-N-((5S)-10-methoxy-5-(methoxymethyl)-5,6-dihydropyrido[2,3-f][1,2,4]traizolo[4,3-d][1,4]oxazepin-3-yl)-3-(5-methyl-2-pyrimidinyl)-2-butanesulfonamide], with 370 nM; and `COC[C@@H]1COc2ccc(OC)nc2-c2nnc(NS(=O)(=O)[C@@H](C)[C@@H](OC(C)C)c3ncc(C)cn3)n21` (single isomer, unassigned) [Example 14.0, (1S,2S)-N-((5R)-10-methoxy-5-(methoxymethyl)-5,6-dihydropyrido[2,3-1][1,2,4]triazolo[4,3-d][1,4]oxazepin-3-yl)-1-(5-methyl-2-pyrimidinyl)-1-(2-propanyloxy)-2-propanesulfonamide or (1S,2S)-N-((5S)-10-methoxy-5-(methoxymethyl)-5,6-dihydropyrido[2,3-1][1,2,4]triazolo[4,3-d][1,4]oxazepin-3-yl)-1-(5-methyl-2-pyrimidinyl)-1-(2-propanyloxy)-2-propanesulfonamide], with 400 nM.
As for `COC[C@@H]1COc2ccc(OC)nc2-c2nnc(NS(=O)(=O)[C@@H](C)[C@@H](OC(C)C)c3ncc(C)cn3)n21` (single isomer, unassigned) [Example 15.0, (1S,2S)-N-((5R)-10-methoxy-5-(methoxymethyl)-5,6-dihydropyrido[2,3-f][1,2,4]triazolo[4,3-d][1,4]oxazepin-3-yl)-1-(5-methyl-2-pyrimidinyl)-1-(2-propanyloxy)-2-propanesulfonamide or (1S,2S)-N-((5S)-10-methoxy-5-(methoxymethyl)-5,6-dihydropyrido[2,3-f][1,2,4]triazolo[4,3-d][1,4]oxazepin-3-yl)-1-(5-methyl-2-pyrimidinyl)-1-(2-propanyloxy)-2-propanesulfonamide], the EC50 amounted to 37 nM.
As for `COc1ccc2c(n1)-c1nnc(NS(=O)(=O)[C@@H](C)[C@@H](OC(C)C)c3ncc(C)cn3)n1[C@H](CO)CO2` (single isomer, unassigned) [Example 18.0, (1S,2S)-N-((R)-5-(hydroxymethyl)-10-methoxy-5,6-dihydropyrido[2,3-f][1,2,4]triazolo[4,3-d][1,4]oxazepin-3-yl)-1-isopropoxy-1-(5-methylpyrimidin-2-yl)propane-2-sulfonamide or (1S,2S)-N-((S)-5-(hydroxymethyl)-10-methoxy-5,6-dihydropyrido[2,3-f][1,2,4]traizolo[4,3-d][1,4]oxazepin-3-yl)-1-isopropoxy-1-(5-methylpyrimidin-2-yl)propane-2-sulfonamide], the EC50 came out at 640 nM.
As for `COc1ccc2c(n1)-c1nnc(NS(=O)(=O)[C@@H](C)[C@@H](OC(C)C)c3ncc(C)cn3)n1[C@H](CO)CO2` (single isomer, unassigned) [Example 19.0, (1S,2S)-N-((R)-5-(hydroxymethyl)-10-methoxy-5,6-dihydropyrido[2,3-f][1,2,4]triazolo[4,3-d][1,4]oxazepin-3-yl)-1-isopropoxy-1-(5-methylpyrimidin-2-yl)propane-2-sulfonamide or (1S,2S)-N-((S)-5-(hydroxymethyl)-10-methoxy-5,6-dihydropyrido[2,3-f][1,2,4]triazolo[4,3-d][1,4]oxazepin-3-yl)-1-isopropoxy-1-(5-methylpyrimidin-2-yl)propane-2-sulfonamide], the figure is 990 nM.

Source of the values: patent US11149040B2, “Fused triazole agonists of the APJ receptor” (AMGEN INC., priority 2017, dated 2021).
